Data on one molecule can be found in PMC6080930 (The Journal of Cell Biology, 2018).

This test has as its target adenylyl cyclase A (ACA); ACA-YFP (Dictyostelium discoideum, UniProt Q03100). Particulars: labelled compound; 2 mM MnSO4, 2 mM MgSO4, Tris pH 8.0, 22°C, 10 min; lysed EVs.

Sequence of adenylyl cyclase A (ACA); ACA-YFP (Q03100 whole entry): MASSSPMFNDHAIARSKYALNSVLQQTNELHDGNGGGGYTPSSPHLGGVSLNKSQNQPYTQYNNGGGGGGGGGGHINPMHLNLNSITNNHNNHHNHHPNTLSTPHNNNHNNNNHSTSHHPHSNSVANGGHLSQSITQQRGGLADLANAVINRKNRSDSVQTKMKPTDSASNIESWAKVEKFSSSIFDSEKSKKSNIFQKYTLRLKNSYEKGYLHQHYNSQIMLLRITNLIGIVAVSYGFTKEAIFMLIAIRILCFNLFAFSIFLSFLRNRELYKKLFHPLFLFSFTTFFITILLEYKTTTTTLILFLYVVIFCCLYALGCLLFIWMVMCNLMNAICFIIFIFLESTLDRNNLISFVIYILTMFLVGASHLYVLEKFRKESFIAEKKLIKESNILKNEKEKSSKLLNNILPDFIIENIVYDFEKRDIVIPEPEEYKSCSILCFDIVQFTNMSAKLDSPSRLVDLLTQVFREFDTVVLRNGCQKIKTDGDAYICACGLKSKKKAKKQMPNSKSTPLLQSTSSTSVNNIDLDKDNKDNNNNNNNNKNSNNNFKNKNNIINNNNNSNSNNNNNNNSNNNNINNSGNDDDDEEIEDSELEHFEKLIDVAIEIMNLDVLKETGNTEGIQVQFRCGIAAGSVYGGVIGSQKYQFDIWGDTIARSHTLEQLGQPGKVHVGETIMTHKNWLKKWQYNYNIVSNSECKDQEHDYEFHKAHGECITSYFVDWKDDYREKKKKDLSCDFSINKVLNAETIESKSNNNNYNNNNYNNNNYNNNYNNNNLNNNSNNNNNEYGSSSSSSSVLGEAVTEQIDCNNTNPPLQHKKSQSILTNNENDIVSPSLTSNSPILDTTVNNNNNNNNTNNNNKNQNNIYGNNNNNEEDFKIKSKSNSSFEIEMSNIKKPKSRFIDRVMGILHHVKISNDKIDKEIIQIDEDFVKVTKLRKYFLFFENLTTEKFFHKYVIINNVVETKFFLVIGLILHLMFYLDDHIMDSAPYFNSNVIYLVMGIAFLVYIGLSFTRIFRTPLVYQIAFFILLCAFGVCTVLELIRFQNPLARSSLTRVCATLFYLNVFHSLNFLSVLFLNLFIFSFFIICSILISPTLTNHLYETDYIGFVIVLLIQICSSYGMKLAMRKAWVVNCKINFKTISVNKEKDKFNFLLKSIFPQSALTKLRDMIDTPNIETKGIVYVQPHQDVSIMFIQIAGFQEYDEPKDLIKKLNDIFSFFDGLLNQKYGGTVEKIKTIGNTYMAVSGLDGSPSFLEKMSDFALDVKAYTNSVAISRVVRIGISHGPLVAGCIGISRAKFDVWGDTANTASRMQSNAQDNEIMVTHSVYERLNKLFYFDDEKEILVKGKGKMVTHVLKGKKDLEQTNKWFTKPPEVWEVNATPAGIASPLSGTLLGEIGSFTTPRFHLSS

On to `Nc1ncnc2c1ncn2[C@@H]1O[C@H](COP(=O)(O)OP(=O)(O)OP(=O)(O)O)[C@@H](O)[C@H]1O` [ATP], for which the “conversion of [32P]ATP to [32P]cAMP, Dowex/alumina columns” value was “MnSO4 induced an increase in adenylyl cyclase activity in ACA-YFP/aca^− EVs”.
